Series [1] is described as follows: Blood-based therapeutic drug monitoring of serum valproate (immunoassay total, GC-MS free). It is filed as in vivo, human. The source says: FIG. 2 presents an analysis pipeline that includes constructing a response vector matrix, splitting the dataset into training and test set, applying feature reduction analysis to […] in order to identify predictors, training mathematical model based on selected predictors, applying selected predictors and mathematical model to the test set to determine the concentration of valproate in a subject, which matches well the serum concentration determined using the blood analysis, as determined in an immunoassay (total valproate concentration) and by GC-MS (free valproate concentration).
The range of pharmacotherapies is described in AED rows. The patients were receiving either a single drug or combinations of up to three drugs. The bottom three rows identify the clinical outcome as described by side effects (mild or severe), drug response (responder or non-responder), and EEG (normal or abnormal). The grey bars on the top show the concentrations (mg/L) of free and total serum VPA (level 0 was assigned to all the measurements of subjects' not taking VPA, missing bars in free VPA represents the unavailability of data). Dark (light) grey bars indicate that the measurements were outside (inside) the therapeutic range (i.e. 50-100 mg/L for total and 5-10 mg/L for free VPA). Thus, for example, patient 20 suffers from DEE. During the first visit (i.e. 20-1), the patient was receiving a combination of LTG, LEV, and VPA. Total serum VPA concentration was 104 mg/L (i.e. beyond the therapeutic range) and free serum VPA could not be measured. At this point in time, the patient had only mild side effects, but was not responding to the medication, and EEG was abnormal. On the second visit, the patient was unable to perform breath test. During the third visit (i.e. 20-3), LEV had been removed, total serum VPA concentration was 108 mg/L and free serum VPA concentration was 12.7 mg/L (both levels above the therapeutic range). Side effects were still mild, EEG was back to normal, but the patient was still not responding to the pharmacotherapy. AED=antiepileptic drugs, EEG=electroencephalography, VPA=valproic acid, LTG=lamotrigine, and LEV=levetiracetam.
59 subjects (32 males and 27 females) between the ages of 4 and 20 (see FIG. 12A for details), undergoing treatment with antiepileptic drugs (AEDs) with the necessity of therapeutic drug monitoring (TDM) were enrolled in the study Immediately after blood drawn for TDM, subjects performed prolonged exhalations directly into SESI-HRMS system, comprising SUPER-SESI ionization device (Fossil Ion Technology, Spain) coupled to a Q Exactive Plus HRMS (Thermo Fisher Scientific, Germany). During the course of study, wherever blood-based TDM were performed, subjects also provided exhalations, leading to multiple measurements from some subjects. In total 75 successful measurements (from 48 subjects) were performed. […] In order to determine the feasibility of TDM of an example drug valproate by using mass spectroscopy of samples of breath exhaled by subjects, the subjects were divided into two groups i.e. valproate users and non-valproate users. […] Moreover, a different relationship between total valproate serum concentration and valproate dose for subjects with mono and multi-therapy compared to that known in the literature (Duran, 1993) was observed (FIG. 12D).

For series [2] the following is noted: human, in vivo. An excerpt:
It will be further noted that according to the methods of the present invention it is possible to measure the level of metabolites that belong to different metabolic pathways. Therefore, by measuring the level of said metabolites and comparing them with each other, it is also possible to compare the activities of said different metabolic pathways. […] FIG. 3 presents the time dependence of the relative activity of two oxidation pathways of valproate, β-oxidation that leads to 3-heptanone, and ω1-oxidation that results in 2-propyl-4-pentanolactone. The activities of both oxidation pathways are presented herein as a ratio between the nAUC parameters for m/z peaks due to compounds belonging to each of the pathways, and presented in a logarithmic scale. Both increase of in 2-propyl-4-pentanolactone to 3-heptanone ratio, as well as decrease thereof can be observed over time, and observed ratios span more than 100-fold range. Herein, values of nAUC parameters for the m/z peaks due to both 3-heptanone and 2-propyl-4-pentanolactone (accordingly, peaks at m/z of 115.11176 and 143.10659 in FIG. 14) are predictors for the previously trained mathematical model of the present invention.
FIG. 3 presents the time dependence of the relative activity of two oxidation pathways of valproate, β-oxidation that leads to 3-heptanone, and […] that results in 2-propyl-4-pentanolactone. […]

The conditions of series [3]: human subject; cited from earlier work.
[4] abbreviates: patient 20, third visit (20-3), LEV removed.

Take `CCCC(CCC)C(=O)O` [VPA, Valproic acid]: in series [1] (FIG. 12D), the “total valproate for a given dose, multi-therapy vs mono-therapy” value is listed as “lower than those of mono-therapy”. For the same compound, the “relationship between participants' age and serum free valproate fraction” value in series [1] (ages 4 to 20, FIG. 12C) is listed as “inversely proportional relationship”. Further, the “total serum VPA concentration” value in series [1] (patient 20, first visit (20-1), combination of LTG, LEV and VPA) stood at 104 mg/L. In addition, in series [1] (setting [4]), the “free serum VPA concentration” value turned out to be 12.7 mg/L and the “total serum VPA concentration” value came out at 108 mg/L. Besides, the “relationship between serum concentrations of free and total valproate” value in series [1] (study participants, FIG. 12B) is “non-linear relationship”. Moreover, the “span of observed 2-propyl-4-pentanolactone to 3-heptanone ratios” value in series [2] is “more than 100 fold”. In series [3], the “fraction directly excreted in urine without chemical modification” value was “Less than three percent”; the “fraction modified with coenzyme A and shuttled to mitochondria (β-oxidation, 3-oxovalproate)” value was 12%; the “fraction oxidised at position 4 (4-hydroxyvalproate)” value was 2.7%; the “fraction oxidised at position 5 (5-hydroxyvalproate)” value is 2.3%. Also, the “fraction undergoing direct glucuronidation” value in series [3] is on record as 80%.

The values are drawn from patent US20230277125A1, “BREATH-BASED THERAPEUTIC DRUG MONITORING METHOD” (UNIVERSITÄTS-KINDERSPITAL BEIDER BASEL, priority 2020, published 2023).
